Measurements taken from publication PMC5983471 (PLoS ONE, 2018).
In brackets after ≈: the same amount, converted by molar mass. Several values for one entry are separate records, joined by “and”; a condition that tells them apart may be missing. Equal values may be shown once. Entries after “also recorded” stand apart in the source; their conditions may differ. Read-outs that look alike come from different tables or passages of the source.

Experiments:
[1] = test system: AR-V7 prostate cancer models; set-up: method as in ref 28 (S1 Protocol, Liu et al, 2014); conditions: in vitro, 48 hours exposure; ref 28 (S1 Protocol, Liu et al, 2014); cited from earlier work
[2] = Phase I dose-escalation: adverse events and dose-limiting toxicities (CTCAE v4.0)
Description: All patients were required to have mCRPC (i.e., disease progression in spite of serum testosterone ≤50 ng/dL) and had received prior abiraterone. Patients were originally required to have detectable AR-V transcripts in circulating tumor cells (CTC) as determined using the AdnaTest assay[9]. […] The primary objective was to assess safety.
We utilized the continual reassessment method (CRM) to evaluate dose-related toxicities and to determine the recommended Phase II dose[37]. We targeted a maximum of 30% of patients incurring dose-limiting toxicities (DLT) up to 30 days after the final (day-28) dose. […] Adverse events (AEs) were documented by incidence and their severity was graded according to the National Cancer Institute–Common Terminology Criteria for Adverse Events (CTCAE) version 4.0. The pharmacokinetic data underwent non-compartmental analysis using Phoenix WinNonlin version 8.0 (Certara USA, Inc; Princeton, NJ), and key pharmacokinetic parameters (e.g., Cmax, Cmin, Css and t1/2) were extracted.

[3] = test system: abiraterone and/or enzalutamide-resistant models, including AR-V7+ cell lines; conditions: cited from earlier work
[4] = Plasma niclosamide pharmacokinetics (LCMS, non-compartmental analysis); assay type: in vivo, human
Description: Blood for pharmacokinetic analyses were drawn at the following time points after the first dose: 0.5 hr, 1 hr, 1.5 hr, 2 hr, 3 hr, 4 hr, 6 hr, 8 hr and on Day 15. […] After vortexing, the samples were centrifuged at 20000 x G for 10 minutes at 4°C. The supernatant was transferred to a 96-well plate and 2 μL were injected on the liquid chromatography mass spectrometry (LCMS) system. The LCMS system was an ultrapressure liquid chromatography (Agilent (Santa Clara, CA) 1290 series) coupled to an Agilent G6410B triple-quadrupole mass spectrometer. The column was an Agilent Zorbax SB-C18 2.1 mm x 150 mm x 5μ maintained at 45°C. Mobile phase A was 10 mM ammonium formate (pH = 3) and mobile phase B was acetonitrile in the ratio of 35% A: 65% B at 0.4 mL/min.

[5] = test system: AR-V7+ CWR22Rv1 cells; conditions: 81.8 ng/mL; cited from earlier work
[6] = test system: metastatic CRPC (PSA); assay: On-study PSA changes; assay type: in vivo, human
Text: The primary objective was to assess safety.

[7] = published pharmacokinetics data; cited from earlier work
[8] = ref 27,71 (S1 Protocol); cited from earlier work
[9] = test system: DU145; conditions: cited from earlier work
[10] = prior experience; ref 27,60 (S1 Protocol); cited from earlier work
[11] = rats; ref 62 (S1 Protocol, WHO/VBC/DS/88.63); cited from earlier work
[12] = test system: enzalutamide-resistant, AR-V7+ C4-2B cells; conditions: co-cultured with 81.8 ng/mL; cited from earlier work
[13] = test system: enzalutamide-resistant LNCaP cells engineered to maintain Stat3 activation; conditions: cited from earlier work
[14] = test system: AR-V7 prostate cancer models; set-up: method as in ref 28,29 (S1 Protocol); conditions: combined with enzalutamide or abiraterone; ref 28,29 (S1 Protocol); cited from earlier work
[15] = AE possibly/probably related, 500 mg PO TID + enzalutamide, Pt# 1, 17, 18
[16] = AE possibly/probably related, 1000 mg PO TID + enzalutamide, Pt# 19, 20
[17] = first dose 500 mg PO, plasma, individual patients Pt# 1, 17, 18
[18] = first dose 500 mg PO, Pt# 1, 17, 18
[19] = first dose 1000 mg PO, plasma, individual patients Pt# 19, 20
[20] = first dose 1000 mg PO, Pt# 19, 20

O=C(Nc1ccc([N+](=O)[O-])cc1Cl)c1cc(Cl)ccc1O [niclosamide, 2',5-dichloro-4'-nitrosalicylanilide]
lowest concentration inducing apoptosis / inhibiting cell line growth [1]: ≥ 0.25 µg/mL
patients with any toxicities deemed at least possibly related to niclosamide ([2]; 500 mg PO TID cohort): one out of three
dose-limiting toxicities (DLTs) ([2]; 500 mg PO TID cohort, 3 patients, + enzalutamide): no dose-limiting toxicities; also recorded: No DLTs observed
tolerability ([2]; 500 mg PO TID in combination with enzalutamide): well tolerated
Nausea (Grade) ([2]; AE possibly/probably related, 500 mg PO TID + enzalutamide 160 mg daily, Pt# 1, 17, 18): 1 Grade
Anorexia (Grade) [2, 15]: 1 Grade
Weight loss (Grade) [2, 15]: 1 Grade
Nausea (Grade) ([2]; AE possibly/probably related, 1000 mg PO TID + enzalutamide 160 mg daily, Pt# 19, 20): 3 Grade and 3 ^* Grade and 2 Grade
Abdominal pain (Grade) [2, 16]: 3 Grade
Anorexia (Grade) [2, 16]: 1 Grade
Colitis (Grade) [2, 16]: 3 Grade and 3 ^** Grade
Diarrhea (Grade) [2, 16]: 3 Grade
Lipase elevation (Grade) [2, 16]: 2 Grade
Vomiting (Grade) [2, 16]: 3 Grade
maximum tolerated dose ([2]; PO TID, in combination with enzalutamide 160 mg daily): 500 mg
concentrations that consistently inhibited cell growth [3]: ≥ 163.5 ng/mL
lowest concentration inhibiting some AR-V7+ cell lines [3]: ≥ 81.8 ng/mL
patients achieving a Cmax ≥163.5 ng/mL ([4]; 500 mg PO TID cohort): one of three
patients achieving a Cmax ≥163.5 ng/mL ([4]; 1000 mg PO TID cohort): one of two
Cmax [4, 17]: 35.7 ng/mL and 88.3 ng/mL
Tmax [4, 17]: 6 h and 2 h and 1 h
% of AUC0-∞ extrapolated [4, 18]: 26.6% and 13.7% and 17.2%
Cmin [4, 18]: 13.3 ng/mL and 6.92 ng/mL and 7.42 ng/mL
Tmin [4, 18]: 4 h and 8 h
Cmax [4, 19]: 149 ng/mL
Tmax [4, 19]: 1 h and 6 h
First dose AUC0-∞ ([4]; first dose 1000 mg PO, Clast/elimination rate constant used for extrapolation, Pt# 19, 20): 986 ng·h/mL
% of AUC0-∞ extrapolated [4, 20]: 36.0% and 36.2%
Apparent oral clearance (clearance divided by fraction absorbed) [4, 20]: 14.9 L/hr per kg of IBW
Cmin [4, 20]: 45.5 ng/mL and 90.0 ng/mL
First dose AUC0-τ [4, 20]: 629 ng·h/mL
Tmin [4, 20]: 8 h
Cmax ([4]; human, plasma, po, 1000 mg, first dose 1000 mg PO, plasma, individual patients Pt# 19, 20, read-out: Cmax): 182 ng/mL
AUC(0-inf) ([4]; human, plasma, po, 1000 mg, first dose 1000 mg PO, Clast/elimination rate constant used for extrapolation, Pt# 19, 20, read-out: First dose AUC0-∞): 1060 ng·h/mL
CL/F ([4]; human, plasma, po, 1000 mg, first dose 1000 mg PO, Pt# 19, 20, read-out: Apparent oral clearance (clearance divided by fraction absorbed) (converted)): 203 mL/min/kg
AUC ([4]; human, plasma, po, 1000 mg, first dose 1000 mg PO, Pt# 19, 20, read-out: First dose AUC0-τ): 676 ng·h/mL
CL/F ([4]; male, human, plasma, po, 1000 mg, all 5 patients, 500 and 1000 mg cohorts, read-out: apparent oral clearance (CL/F), range over patients): 152 to 630 mL/min/kg
growth inhibition [5]: did not demonstrate significant growth inhibition
PSA Day 29 ([6]; 1000 mg PO TID + enzalutamide, Pt# 19): 3009.49 ng/mL
PSA Change (%) ([6]; Day 1 to Day 29, 1000 mg PO TID + enzalutamide, Pt# 19): 101.7%
PSA declines ([6]; all dose cohorts, niclosamide + enzalutamide): no PSA declines; also recorded: no evidence for declining PSA
clinical activity ([6]; any patient enrolled, niclosamide + enzalutamide): no evidence of clinical activity
oral bioavailability [7]: poor oral bioavailability
solubility in acetone [8]: soluble
solubility in ethanol, chloroform, or ether [8]: sparingly soluble
solubility in water [8]: almost insoluble
IC50, decreased cell proliferation [9]: 330 ng/mL (≈ 1.01 µM)
patients with gastrointestinal side effects (nausea, vomiting and stomach pain) [10]: ~ 10%
oral LD50 [11]: > 5,000 mg/kg body weight
growth inhibition [12]: growth inhibited
concentrations at which cells were growth inhibited [13]: ≥ 163.5 ng/mL
anti-tumor effect of combination [14]: synergistic
